Entries after “also recorded” stand apart in the source; their conditions may differ.
Legend:
mutant CFTR = target: T1, mutant CFTR (Homo sapiens, UniProt P13569, E92K); experiment: Ussing chamber forskolin-stimulated chloride transport in Fisher Rat Thyroid cells expressing CFTR mutants; type: cell-based; conditions: Corr4a 15 μM
T1 construct: expressed in transfected cells
Description: Ussing chamber techniques with Fisher Rat Thyroid cells that are stably transfected with the indicated form of CFTR are used to record the transepithelial current (IT) resulting from CFTR-mediated chloride transport (Van Goor, et al., 2009, PNAS, 106: 18825-30). Standard conditions for Ussing chamber electrophysiological with different forms of CFTR measured forskolin (10 μM)-stimulated chloride transport that peaked at 205.5 μA/cm2 for normal CFTR.

V232D-CFTR = V232D-CFTR (Homo sapiens, UniProt P13569, V232D); conditions: cited from earlier work
Sequence of V232D-CFTR (P13569 whole entry V232D): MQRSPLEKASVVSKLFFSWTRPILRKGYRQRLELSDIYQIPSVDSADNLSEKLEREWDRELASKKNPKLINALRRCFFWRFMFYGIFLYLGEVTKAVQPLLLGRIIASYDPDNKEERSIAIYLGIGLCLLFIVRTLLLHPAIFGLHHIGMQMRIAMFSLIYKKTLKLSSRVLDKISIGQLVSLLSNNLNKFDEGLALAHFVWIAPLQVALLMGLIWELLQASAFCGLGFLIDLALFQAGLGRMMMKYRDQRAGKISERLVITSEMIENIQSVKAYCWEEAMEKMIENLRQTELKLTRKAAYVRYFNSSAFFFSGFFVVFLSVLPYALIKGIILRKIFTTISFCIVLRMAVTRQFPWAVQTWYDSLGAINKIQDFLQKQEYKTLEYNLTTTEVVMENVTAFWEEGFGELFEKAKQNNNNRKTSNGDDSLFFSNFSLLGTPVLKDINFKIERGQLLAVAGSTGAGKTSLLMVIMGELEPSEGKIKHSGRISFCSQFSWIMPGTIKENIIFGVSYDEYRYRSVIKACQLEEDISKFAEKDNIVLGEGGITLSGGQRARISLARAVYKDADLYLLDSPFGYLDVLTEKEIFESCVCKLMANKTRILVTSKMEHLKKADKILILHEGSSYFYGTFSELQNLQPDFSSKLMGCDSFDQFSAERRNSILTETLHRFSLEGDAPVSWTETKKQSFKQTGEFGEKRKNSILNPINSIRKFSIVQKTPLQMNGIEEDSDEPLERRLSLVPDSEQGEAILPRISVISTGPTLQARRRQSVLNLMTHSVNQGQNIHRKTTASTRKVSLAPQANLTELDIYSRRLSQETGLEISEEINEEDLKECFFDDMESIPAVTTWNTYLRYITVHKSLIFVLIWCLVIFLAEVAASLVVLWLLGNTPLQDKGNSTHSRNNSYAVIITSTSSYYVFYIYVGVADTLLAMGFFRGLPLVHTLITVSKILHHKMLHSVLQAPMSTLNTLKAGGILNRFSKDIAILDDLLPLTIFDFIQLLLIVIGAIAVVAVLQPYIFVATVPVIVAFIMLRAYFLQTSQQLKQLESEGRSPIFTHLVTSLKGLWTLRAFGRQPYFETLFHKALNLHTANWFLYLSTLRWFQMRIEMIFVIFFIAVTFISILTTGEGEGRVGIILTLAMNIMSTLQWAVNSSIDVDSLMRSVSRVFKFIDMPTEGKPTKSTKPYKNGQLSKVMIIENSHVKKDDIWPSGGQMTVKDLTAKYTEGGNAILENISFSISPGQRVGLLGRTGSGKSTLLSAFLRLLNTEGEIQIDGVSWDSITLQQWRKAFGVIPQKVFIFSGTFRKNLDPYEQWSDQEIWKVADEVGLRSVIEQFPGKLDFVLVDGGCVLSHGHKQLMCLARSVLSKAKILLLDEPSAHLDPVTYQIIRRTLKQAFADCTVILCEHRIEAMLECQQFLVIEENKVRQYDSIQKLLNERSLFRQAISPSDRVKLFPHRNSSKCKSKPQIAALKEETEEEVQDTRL

ΔF508-CFTR = ΔF508-CFTR (Homo sapiens, UniProt P13569, DEL508-508); parameters: primary cultures of human bronchial epithelial cells isolated from subjects with CF; host or cells: primary human bronchial epithelial cells (Van Goor 2011); CF patients in a 28-day study (Clancy 2012); conditions: bronchial epithelial cells from CF subjects; cited from earlier work
Sequence of ΔF508-CFTR (P13569 with tags, fused parts or gaps DEL508-508): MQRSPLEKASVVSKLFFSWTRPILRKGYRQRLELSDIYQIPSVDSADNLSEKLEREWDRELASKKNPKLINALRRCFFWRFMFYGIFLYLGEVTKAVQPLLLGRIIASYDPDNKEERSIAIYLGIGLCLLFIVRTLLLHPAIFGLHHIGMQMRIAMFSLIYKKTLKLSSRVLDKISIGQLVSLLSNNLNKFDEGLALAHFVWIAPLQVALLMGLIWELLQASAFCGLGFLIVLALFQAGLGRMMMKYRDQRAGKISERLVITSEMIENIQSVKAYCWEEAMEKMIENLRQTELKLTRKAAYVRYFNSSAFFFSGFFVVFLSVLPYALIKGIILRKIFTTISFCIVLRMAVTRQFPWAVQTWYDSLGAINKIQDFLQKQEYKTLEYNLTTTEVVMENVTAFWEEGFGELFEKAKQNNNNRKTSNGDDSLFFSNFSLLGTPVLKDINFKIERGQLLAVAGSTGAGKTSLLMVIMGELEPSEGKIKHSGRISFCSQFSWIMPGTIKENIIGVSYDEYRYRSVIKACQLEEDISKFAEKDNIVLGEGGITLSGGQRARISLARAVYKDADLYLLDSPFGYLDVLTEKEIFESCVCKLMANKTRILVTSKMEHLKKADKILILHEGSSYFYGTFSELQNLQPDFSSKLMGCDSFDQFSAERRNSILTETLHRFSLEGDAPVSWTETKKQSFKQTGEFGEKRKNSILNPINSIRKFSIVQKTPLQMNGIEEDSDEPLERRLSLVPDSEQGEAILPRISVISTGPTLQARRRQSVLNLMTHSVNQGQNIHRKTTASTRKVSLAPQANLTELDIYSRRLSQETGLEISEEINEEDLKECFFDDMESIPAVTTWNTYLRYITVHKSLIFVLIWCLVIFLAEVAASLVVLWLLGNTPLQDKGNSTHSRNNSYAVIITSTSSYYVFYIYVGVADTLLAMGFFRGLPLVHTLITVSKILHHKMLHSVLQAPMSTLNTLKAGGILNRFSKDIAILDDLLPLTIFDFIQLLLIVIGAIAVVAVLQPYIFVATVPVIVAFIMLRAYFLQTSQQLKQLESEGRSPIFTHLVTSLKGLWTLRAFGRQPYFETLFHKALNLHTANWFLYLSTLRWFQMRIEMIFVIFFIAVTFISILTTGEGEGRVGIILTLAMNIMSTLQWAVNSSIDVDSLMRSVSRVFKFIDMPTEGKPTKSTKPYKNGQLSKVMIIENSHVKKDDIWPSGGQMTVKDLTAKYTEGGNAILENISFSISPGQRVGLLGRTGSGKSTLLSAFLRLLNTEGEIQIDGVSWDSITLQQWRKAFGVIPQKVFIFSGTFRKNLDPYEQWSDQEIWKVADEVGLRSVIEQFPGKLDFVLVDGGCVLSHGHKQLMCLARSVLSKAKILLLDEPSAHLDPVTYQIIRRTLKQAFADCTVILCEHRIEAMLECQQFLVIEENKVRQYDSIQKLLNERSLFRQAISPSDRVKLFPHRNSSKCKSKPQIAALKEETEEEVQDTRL

[1] = target: T2, N-terminal CFTR fragments (Homo sapiens, UniProt P13569); experiment: Steady-state accumulation of CFTR fragments, western blot, HEK293 cells; type: cell-based; conditions: bortezomib 10 μM
T2 construct: Indicated CFTR fragments were generated via introduction of a stop codon after the specified residue; expressed in transfected cells; host or cells: HEK293, transient, pcDNA3.1(+)-CFTR derivatives
Description: Steady-state levels of CFTR and its mutants are determined by western blot analysis. HEK293 cells are transiently transfected with the indicated plasmids (Grove, et al., 2011, Mol Biol Cell, 22: 301-14). The transfected cells are allowed to recover for approximately 18 hrs before addition of DMEM and then supplemented with lumacaftor or DMSO (control). The cells are incubated with the correctors for 24 hrs before isolating the cells for western blot analysis. The harvested cells are diluted with 2×SDS sample buffer (100 mM Tris-HCl (pH 6.8)/4% SDS/0.05% Bromophenol Blue/20% glycerol), sonicated, and heated at 37° C. prior to resolving the proteins on SDS-PAGE gels. The proteins are transferred to nitrocellulose membranes and the membranes are probed with the designated antibodies. Tubulin is used to indicate loading controls.
A set of CFTR fragments with domain boundaries that permitted them to accumulate in unstable or stable states are expressed in HEK293 cells, and the effect of 5 μM lumacaftor on the accumulation of different fragments is determined. As a point of reference, the impact of the proteasome inhibitor bortezomib on CFTR fragment accumulation is also measured.
Cells are treated for 4 hours with bortezomib or 18 hours at 37° C. with lumacaftor. The amount of CFTR fragment accumulation is determined by immunoblot.
To identify regions of CFTR required for lumacaftor activity, different length CFTR fragments were expressed in HEK-293 cells and their steady-state accumulation and half-life were quantified in biochemical assays (FIGS. 1A and B; FIG. 2). Since CFTR folding initiates cotranslationally and channel assembly is completed post-translationally (Higgins, 1992, Annual Review of Cell Biology, 8:67-113), CFTR fragments which may resemble folding intermediates have been used to study CFTR biogenesis. The underlying rationale is that differences in accumulation or half-life between different length CFTR fragments are believed to reflect differences in the stability of the protein conformation and resistance to endoplasmic reticulum associated degradation (ERAD). […] Differences in accumulation and halflife of CFTR fragments have been used successfully to identify Hsp70- and calnexin-dependent steps in CFTR folding and degradation pathways (Farinha and Amaral, 2005, Mol Cell Biol, 25:5242-52; Lukacs and Verkman, […], EMBO Journal, 13:6076-86; Meacham et al., 1999, EMBO Journal, 18:1492-1505; Okiyoneda et al., 2004, Mol Biol Cell, 15:563-574), to identify defective interactions between MSD1, NBD1 and MSD2 as an underlying cause of premature degradation of ΔF508-CFTR (Cui et al., 2007, J Mol Biol, 365:981-994; Du and Lukacs, 2009, Molecular Biology of the Cell, 20:1903-1915; Younger et al., 2006, Cell, 126:571-582), and to identify MSD2 as the site of action of the CFTR corrector, Corr-4a.

[2] = compared to CFTR^430 and CFTR^653

T1 sequence (P13569 whole entry E92K): as the sequence (P13569 whole entry V232D) above, with E92K, D232V counted along it

SMILES	restoration of E92K-CFTR function (mutant CFTR)	V232D-CFTR biogenesis and function (V232D-CFTR)	ΔF508-CFTR function (ΔF508-CFTR)	increase in accumulation of CFTR^370 ([1]; 4 hours)	increase in accumulation of CFTR^530 ([1]; 4 hours)	sensitivity of CFTR^430 accumulation to proteasome inhibition ([1]; 4 hours)	sensitivity of CFTR^653 accumulation to proteasome inhibition ([1]; 4 hours)	effect of proteasome inhibition on CFTR^370 [1, 2]	effect of proteasome inhibition on CFTR^530 [1, 2]
COc1ccc(Cl)cc1Nc1nc(-c2sc(NC(=O)c3ccccc3)nc2C)cs1 [Corr-4a]	could not restore	to normal levels	partially restored						
CC(C)C[C@H](NC(=O)[C@H](Cc1ccccc1)NC(=O)c1cnccn1)B(O)O [bortezomib]				10 fold	10 fold	relatively insensitive	relatively insensitive	more susceptible; also recorded: able to increase the stability	more susceptible

From patent publication US20160074374A1, “CORRECTORS ACTING THROUGH MSD1 OF CFTR PROTEIN” (VERTEX PHARMACEUTICALS INCORPORATED, priority 2013, published 2016)
